From patent publication US20230320956A1, “DIARYLALKANE COMPOUNDS AND COMPOSITIONS FOR USE WITH SKIN AGING AND METHODS OF PRODUCTION THEREOF” (Unigen, Inc., priority 2022, published 2023)

System: keratinocytes (Hacat cell line)
Experiment: Global gene expression (RNA-seq) in treated keratinocytes
Assay type: cell-based, human
Conditions: for Fold change (gene expression): 40 μM vs untreated; for Fold Enrichment / Number of Genes Differentially Expressed: 40 μM
Experimental: To determine specific expression changes dimethoxytolyl propylresorcinol exerted on human keratinocyte aging genes, keratinocytes (Hacat cell line) were treated dimethoxytolyl propylresorcinol at 40 μM and gene expression was analyzed by RNA-seq. Differential gene expression was compared to untreated keratinocytes and cells treated with 40 μM Retinol A to find genes involved in aging. […] Retinol was chosen as a positive control because retinoids have been described as having effective anti-aging and anti-wrinkle effects (Zasada M, 2019). We directly compared the effects of Retinol on keratinocytes with the same concentration of dimethoxytolyl propylresorcinol.

[1] = Gene Cluster Activation of MAPK activity
[2] = Gene Cluster Calcium ion binding
[3] = Gene Cluster Cell-cell signaling
[4] = Gene Cluster Cellular response to lipopolysaccharide
[5] = Gene Cluster Cellular response to retinoic acid
[6] = Gene Cluster Epidermis development
[7] = Gene Cluster Epithelial cell differentiation
[8] = Gene Cluster Extracellular exosome
[9] = Gene Cluster Extracellular matrix organization
[10] = Gene Cluster Extracellular region
[11] = Gene Cluster Extracellular space
[12] = Gene Cluster Growth factor activity
[13] = Gene Cluster Hyaluronan biosynthetic process
[14] = Gene Cluster Inflammatory response
[15] = Gene Cluster Intermediate filament cytoskeleton organization
[16] = Gene Cluster Keratinocyte differentiation
[17] = Gene Cluster Negative regulation of ERK1 and ERK2 cascade
[18] = Gene Cluster Negative regulation of cell proliferation
[19] = Gene Cluster Negative regulation of endopeptidase activity
[20] = Gene Cluster Neutrophil chemotaxis
[21] = Gene Cluster O-glycan processing
[22] = Gene Cluster Osteoblast differentiation
[23] = Gene Cluster Positive regulation of angiogenesis
[24] = Gene Cluster Positive regulation of cell migration
[25] = Gene Cluster Positive regulation of cell proliferation
[26] = Gene Cluster Positive regulation of gene expression
[27] = Gene Cluster Positive regulation of smooth muscle cell proliferation
[28] = Gene Cluster Proteinaceous extracellular matrix
[29] = Gene Cluster Transforming growth factor beta receptor binding

COc1ccc(CCCc2ccc(O)cc2O)c(OC)c1C [dimethoxytolyl propylresorcinol, 1-(3-methyl-2,4-dimethoxyphenyl)-3-(2′,4′-dihydroxyphenyl)-propane]
Fold change (gene expression) (AHR - Aryl hydrocarbon receptor, Oxidative stress): 1.73 fold | Fold change (gene expression) (ANGPTL4 - Angiopoietin-like 4, Negative regulation of growth/Angiogenesis): 8.23 fold | Fold change (gene expression) (ANOS1 - Anosmin 1, ECM/Nerve adhesion): 0.49 fold | Fold change (gene expression) (BMP4 - Bone morphogenetic protein 4, Growth): 0.41 fold | Fold change (gene expression) (C3orf33 - Chromosome 3 open reading frame 33, Negative regulation of growth): 3.03 fold | Fold change (gene expression) (CD1D - CD1d molecule, ECM): 0.36 fold | Fold change (gene expression) (CDK5R1 - Cyclin-dependent kinase 5 activator 1, Growth/Skin barrier): 1.54 fold | Fold change (gene expression) (CEACAM1 - CEA cell adhesion molecule 1, Cell adhesion): 2.01 fold | Fold change (gene expression) (COL1A1 - Collagen type 1, ECM): 1.89 fold | Fold change (gene expression) (COL5A1 - Collagen type V alpha 1 chain, ECM): 0.24 fold | Fold change (gene expression) (CRISPLD2 - Cysteine-rich secretory protein LCCL domain-containing 2, ECM): 2.56 fold | Fold change (gene expression) (CXCL3 - C-X-C motif chemokine ligand 3, Immune signaling): 8.16 fold | Fold change (gene expression) (CYP1A1 - Cytochrome P450 family 1 subfamily A member 1, Drug metabolism): 5.04 fold | Fold change (gene expression) (ECM1 - Extracellular matrix protein 1, ECM): 2.49 fold | Fold change (gene expression) (EPHA4 - Ephrin type-A receptor 4, Cell adhesion, cell communication): 0.42 fold | Fold change (gene expression) (EREG - Epiregulin, Growth): 9.61 fold | Fold change (gene expression) (FABP5 - Fatty acid binding protein 5, Skin barrier): 1.68 fold | Fold change (gene expression) (FGF1 - Fibroblast growth factor 1, Growth): 0.43 fold | Fold change (gene expression) (FGF11 - Fibroblast growth factor 11, Growth): 0.56 fold | Fold change (gene expression) (FLRT2 - Fibronectin leucine-rich transmembrane protein 2, ECM): 0.30 fold | Fold Enrichment [1]: 2.39 fold | Number of Genes Differentially Expressed [1]: 14 | Fold Enrichment (Gene Cluster Angiogenesis): 2.79 fold | Number of Genes Differentially Expressed (Gene Cluster Angiogenesis): 34 | Fold Enrichment [2]: 1.49 fold | Number of Genes Differentially Expressed [2]: 58 | Fold Enrichment (Gene Cluster Cell development): 4.12 fold | Number of Genes Differentially Expressed (Gene Cluster Cell development): 9 | Fold Enrichment (Gene Cluster Cell surface): 1.85 fold | Number of Genes Differentially Expressed (Gene Cluster Cell surface): 53 | Fold Enrichment [3]: 2.59 fold | Number of Genes Differentially Expressed [3]: 36 | Fold Enrichment [4]: 3.08 fold | Number of Genes Differentially Expressed [4]: 19 | Fold Enrichment [5]: 3.14 fold | Number of Genes Differentially Expressed [5]: 12 | Fold Enrichment [6]: 4.52 fold | Number of Genes Differentially Expressed [6]: 21 | Fold Enrichment [7]: 2.87 fold | Number of Genes Differentially Expressed [7]: 11 | Fold Enrichment [8]: 1.23 fold | Number of Genes Differentially Expressed [8]: 183 | Fold Enrichment [9]: 2.05 fold | Number of Genes Differentially Expressed [9]: 22 | Fold Enrichment [10]: 1.60 fold | Number of Genes Differentially Expressed [10]: 136 | Fold Enrichment [11]: 1.97 fold | Number of Genes Differentially Expressed [11]: 140 | Fold Enrichment [12]: 3.63 fold | Number of Genes Differentially Expressed [12]: 32 | Fold Enrichment (Gene Cluster Growth): 5.23 fold | Number of Genes Differentially Expressed (Gene Cluster Growth): 8 | Fold Enrichment (Gene Cluster Heparin binding): 2.53 fold | Number of Genes Differentially Expressed (Gene Cluster Heparin binding): 22 | Fold Enrichment [13]: 10.45 fold | Number of Genes Differentially Expressed [13]: 4 | Fold Enrichment [14]: 2.61 fold | Number of Genes Differentially Expressed [14]: 54 | Fold Enrichment [15]: 7.32 fold | Number of Genes Differentially Expressed [15]: 6 | Fold Enrichment [16]: 3.13 fold | Number of Genes Differentially Expressed [16]: 13 | Fold Enrichment [17]: 3.47 fold | Number of Genes Differentially Expressed [17]: 11 | Fold Enrichment [18]: 2.17 fold | Number of Genes Differentially Expressed [18]: 47 | Fold Enrichment [19]: 2.42 fold | Number of Genes Differentially Expressed [19]: 16 | Fold Enrichment [20]: 3.33 fold | Number of Genes Differentially Expressed [20]: 12 | Fold Enrichment [21]: 3.05 fold | Number of Genes Differentially Expressed [21]: 10 | Fold Enrichment [22]: 2.64 fold | Number of Genes Differentially Expressed [22]: 15 | Fold Enrichment [23]: 3.02 fold | Number of Genes Differentially Expressed [23]: 19 | Fold Enrichment [24]: 2.88 fold | Number of Genes Differentially Expressed [24]: 29 | Fold Enrichment [25]: 1.96 fold | Number of Genes Differentially Expressed [25]: 50 | Fold Enrichment [26]: 1.82 fold | Number of Genes Differentially Expressed [26]: 26 | Fold Enrichment [27]: 4.88 fold | Number of Genes Differentially Expressed [27]: 16 | Fold Enrichment [28]: 2.47 fold | Number of Genes Differentially Expressed [28]: 35 | Fold Enrichment (Gene Cluster Response to drug): 2.04 fold | Number of Genes Differentially Expressed (Gene Cluster Response to drug): 34 | Fold Enrichment [29]: 4.82 fold | Number of Genes Differentially Expressed [29]: 11 | Fold Enrichment (Gene Cluster Wound healing): 3.20 fold | Number of Genes Differentially Expressed (Gene Cluster Wound healing): 14 | Fold change (gene expression) (HAS2 - hyaluronan synthase 2, ECM): 5.48 fold | Fold change (gene expression) (HAS3 - hyaluronan synthase 3, ECM): 3.59 fold | Fold change (gene expression) (HBEGF - Heparin-binding EGF-like growth factor, Growth): 8.61 fold | Fold change (gene expression) (HIF1A - Hypoxia-inducible factor 1 subunit alpha, Oxidative stress): 1.36 fold | Fold change (gene expression) (HMOX1 - Heme oxygenase 1, Oxidative stress): 5.23 fold | Fold change (gene expression) (HS3ST1 - Heparan sulfate-glucosamine 3-sulfotransferase 1, ECM): 2.28 fold | Fold change (gene expression) (IL1A - Interleukin 1 alpha, Cytokine signaling): 6.60 fold | Fold change (gene expression) (IL1RL1 - Interleukin 1 receptor-like 1, Immune signaling): 17.29 fold | Fold change (gene expression) (ITGA6 - Integrin subunit alpha 6, Cell adhesion): 1.44 fold | Fold change (gene expression) (ITGBL1 - Integrin subunit beta-like 1, Cell adhesion): 0.68 fold | Fold change (gene expression) (KIF13A - Kinesin family member 13A, Cytoskeleton/secretion): 0.67 fold | Fold change (gene expression) (LAMA3 - Laminin subunit alpha 3, ECM): 1.59 fold | Fold change (gene expression) (LAMC2 - Laminin subunit gamma 2, ECM): 2.72 fold | Fold change (gene expression) (NGF - Nerve growth factor, Growth): 113.25 fold | Fold change (gene expression) (NID2 - Nidogen 2 precursor, ECM): 1.45 fold | Fold change (gene expression) (OCLN - Occludin, Skin barrier): 1.42 fold | Fold change (gene expression) (OLFM4 - Olfactomedin 4, ECM): 0.10 fold | Fold change (gene expression) (PARP15 - Poly (ADP-Ribose) polymerase family member 15, DNA damage repair/transcription regulation): 98.2 fold | Fold change (gene expression) (PI3 - Peptidase inhibitor 3, elastase inhibitor, Elastin genes): 10.5 fold | Fold change (gene expression) (PSAPL1 - Prosaposin-like 1, ECM): 0.30 fold | Fold change (gene expression) (PSG5 - Pregnancy specific beta-1-glycoprotein 5, ECM): 0.30 fold | Fold change (gene expression) (PTPRR - Protein tyrosine phosphatase receptor type R, Negative regulation of growth): 3.96 fold | Fold change (gene expression) (RAPGEF3 - Rap guanine nucleotide exchange factor 3, Plasma membrane fusion/cytoskeleton): 1.78 fold | Fold change (gene expression) (SELE - E-Selectin, Cell adhesion): 99.30 fold | Fold change (gene expression) (SEMA3D - Semaphorin 3D, ECM/Nerve growth): 0.54 fold | Fold change (gene expression) (SERPINB2 - Serpin family B member 2, Skin barrier): 4.25 fold | Fold change (gene expression) (SERPINB4 - Serpin family B member 4, Skin barrier): 6.37 fold | Fold change (gene expression) (SIRT1 - Sirtuin 1, Transcription regulation): 1.30 fold | Fold change (gene expression) (SIRT7 - Sirtuin 7, Transcription regulation): 1.41 fold | Fold change (gene expression) (SOD2 - Superoxide dismutase 2, Oxidative stress): 1.54 fold | Fold change (gene expression) (TFP12 - Tissue factor pathway inhibitor 2, ECM): 2.37 fold | Fold change (gene expression) (TGFB1 - Transforming growth factor beta 1, TGF-β signaling): 1.30 fold | Fold change (gene expression) (TLR4 - Toll-like receptor 4, Immune signaling): 3.41 fold | Fold change (gene expression) (TNC - Tenascin C, ECM/Nerve growth): 0.50 fold | Fold change (gene expression) (TP73 - Tumor protein P73, Growth): 0.35 fold | Fold change (gene expression) (TXNRD1 - Thioredoxin reductase 1, Oxidative stress): 1.52 fold | Fold change (gene expression) (UGCG - UDP-glucose ceramide glucosyltransferase, Lipid metabolism and transport): 1.56 fold | Fold change (gene expression) (VIT - Vitrin, ECM): 0.08 fold
